Laboratory results: patent US11493517B2, “Eukaryotic translation initiation factors (EIFS) as novel biomarkers in head and neck squamous cell carcinoma (HNSCC)” (Otto-von-Guericke-Universität Magdeburg, priority 2020, dated 2022)
Like-named read-outs stand apart in the source and are kept apart here.

How the values were obtained:
[1] = system: 3D-organoids of HNSCC derived from patient populations; test: Patient derived 3D-organoids chemosensitivity testing (CellTiter-Glo luminescence cell viability assay); assay type: cell-based; conditions: for IC50: Homo sapiens, patient derived HNSCC 3D-organoids, 72 h incubation
Experimental: Patient Derived 3D-Organoids (PD30} and Chemosensitivity Testing Tumor samples from patients, who have undergone resection in the ENT clinic of Otto-von-Guericke University in Magdeburg, were incubated overnight in the RPM medium containing penicillin, streptomycin and amphotericin. On the following day, the tissue samples were crushed, passed through a sieve set to produce a size fraction of between […], which were then incubated on 24-well plates at 37° C. The PD30s were incubated with Salubrinal in a 384-well culture plate for 72 h (i.e. the double population doubling time}. Thereafter, the CellTiter-Glo® luminescence cell viability assay was performed. The reagent mixture was assembled according to the manufacturer's instructions. All experiments were performed three times with three repetitions

[2] = system: moderately differentiated laryngeal cancer cell lines (SNU-899, SNU-1066, SNU-1214); test: MTT cell viability assay in cell culture; assay type: cell-based
Experimental: MTT Assay in Cell Culture Cell viability assays were carried out with 3 moderately differentiated laryngeal cancer cell lines (SNU-899, SNU-1066, SNU-1214}. MTT reagent stock solution was prepared by dissolving 5 mg crystal in 1 ml PBS and filter sterilization. The cell culture medium was aspirated and replaced by 100 μl fresh medium and 10 μl MTT stock solution per well. The plates were incubated at 37° C. for two hours. The supernatant was removed and 100 μl DMSO was added to each well. After 15-minute incubation at room temperature in a orbital shaker the absorption at […] was detected. All measurements were performed three times using GloMax@-Multi+Microplate Multimode Reader (Promega, Germany}. All experiments were performed three times with three repetitions.

SMILES: O=C(/C=C/c1ccccc1)NC(NC(=S)Nc1cccc2cccnc12)C(Cl)(Cl)Cl (centres unmarked) [Salubrinal]
- IC50 ([1]; read-out: IC50 range across samples, reduction of cell viability, range over samples): 16 to 158 µM
- IC50 ([1]; read-out: average IC50, reduction of cell viability, average over samples): 56 µM
- effect on cell viability in 3D-cell culture (FIG. 5) ([1]; in words): reduction of cell viability
- cytotoxicity at 50 µM ([2]; effect dependent on the cell line and on the dosage, highest efficacy at 50 μM after 72 hours, read-out: reduction of the viability of the cells): 20 to 40%
- effect on cell viability (FIG. 4) ([2]; in words): reduction in cell viability
